According to patent US20160376263A1, “BITTER TASTE MODIFIERS INCLUDING SUBSTITUTED 1-BENZYL-3-(1-(ISOXAZOL-4-YLMETHYL)-1H-PYRAZOL-4-YL)IMIDAZOLIDINE-2,4-DIONES AND COMPOSITIONS THEREOF” (SENOMYX, INC., priority 2016, published 2016):

Experiments:
hT2R8 bitter receptor = molecular target: T1, hT2R8 bitter receptor (Homo sapiens, UniProt Q9NYW2); assay: hT2R8 bitter receptor inhibition; assay type: cell-based; conditions: read-out: IC50, inhibition of hT2R08 bitter receptor
T1 sequence (Q9NYW2 1-309): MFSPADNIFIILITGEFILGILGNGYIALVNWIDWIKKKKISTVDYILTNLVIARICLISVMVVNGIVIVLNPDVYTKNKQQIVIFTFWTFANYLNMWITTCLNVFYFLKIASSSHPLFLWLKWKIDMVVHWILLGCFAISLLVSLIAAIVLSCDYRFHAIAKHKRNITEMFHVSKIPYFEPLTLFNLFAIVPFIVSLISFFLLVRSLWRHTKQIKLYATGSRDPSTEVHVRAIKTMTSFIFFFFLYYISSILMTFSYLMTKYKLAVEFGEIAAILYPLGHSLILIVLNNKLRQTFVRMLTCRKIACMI

Question: What does the source list for Cc1noc(C)c1Cn1cc(N2C(=O)N(Cc3cc(O)cc(O)c3)C(C)(C)C2=O)cn1 [Example 105]?
Answer: IC50 (hT2R8 bitter receptor): 10 nM; melting point: 213 to 215 °C
